Measured values from PubChem BioAssay (NCI).
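A five-concentration, 48-hour dose response in 96-well plates underlies each endpoint, interpolated linearly between surrounding concentrations. Definition used: TGI = concentration required for complete inhibition of growth.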

Columns and labels:
Test in all cases: NCI anticancer screen, dose series, 48 h
[1] = test system: UO-31 renal
[2] = test system: A549 NSCLC
[3] = test system: M14 melanoma
[4] = test system: DU-145 prostate
[5] = test system: OVCAR-4 ovarian
[6] = test system: EKVX NSCLC
[7] = test system: RXF 393 renal
[8] = test system: SN12C renal
[9] = test system: IGROV1 ovarian
[10] = test system: 786-0 renal
[11] = test system: MDA-MB-231 breast
[12] = test system: K-562 leukemia
[13] = test system: NCI-H226 lung
[14] = test system: MALME-3M melanoma
[15] = test system: HT29 colon
[16] = test system: KM12 colon
[17] = test system: SK-MEL-2 melanoma
[18] = test system: SF-539 CNS
[19] = test system: COLO 205 colon
[20] = test system: SNB-75 CNS
[21] = test system: HOP-92 NSCLC
[22] = test system: NCI-H522 lung
[23] = test system: T-47D breast
[24] = test system: HL-60(TB) leukemia
[25] = test system: CCRF-CEM leukemia
[26] = test system: A498 renal
[27] = test system: NCI/ADR-RES ovarian
[28] = test system: OVCAR-5 ovarian
[29] = test system: MDA-N
[30] = test system: NCI-H460 lung
[31] = test system: CAKI-1 renal
[32] = test system: OVCAR-3 ovarian
[33] = test system: SK-MEL-28 melanoma
[34] = test system: HCC-2998 colon
[35] = test system: HCT-116 colon
[36] = test system: U251 CNS
[37] = test system: RPMI-8226 leukemia
[38] = test system: MOLT-4 leukemia
[39] = test system: HCT-15 colon
[40] = test system: OVCAR-8 ovarian
[41] = test system: LOX IMVI melanoma
[42] = test system: MDA-MB-435
[43] = test system: SNB-19 CNS
[44] = test system: HOP-62 NSCLC
[45] = test system: SF-268 CNS
[46] = test system: NCI-H23 lung
[47] = test system: UACC-257 melanoma
[48] = test system: TK-10 renal
[49] = test system: ACHN renal
[50] = test system: SK-MEL-5 melanoma
[51] = test system: PC-3 prostate
[52] = test system: SF-295 CNS
[53] = test system: SW-620 colon
[54] = test system: HS 578T breast
[55] = test system: SK-OV-3 ovarian
[56] = test system: MCF7 breast
[57] = test system: UACC-62 melanoma
[58] = test system: SR leukemia

O=C1c2c(ccc3c2CCC3)CC12Cc1ccccc1C2
TGI [1]: 59.7 µM
TGI [2]: > 100 µM
TGI [3]: > 100 µM
TGI [4]: > 100 µM
TGI [5]: > 100 µM
TGI [6]: > 100 µM
TGI [7]: 40.4 µM
TGI [8]: > 100 µM
TGI [9]: > 100 µM
TGI [10]: 91.5 µM
TGI [11]: 71.3 µM
TGI [12]: 79.3 µM
TGI [13]: 62.8 µM
TGI [14]: 54 µM
TGI [15]: 47.1 µM
TGI [16]: 51.4 µM
TGI [17]: 47.6 µM
TGI [18]: 74.8 µM
TGI [19]: 53.1 µM
TGI [20]: 91.1 µM
TGI [21]: 41 µM
TGI [22]: 73.7 µM
TGI [23]: > 100 µM
TGI [24]: 34.9 µM
TGI [25]: 46.1 µM
TGI [26]: 96.2 µM
TGI [27]: > 100 µM
TGI [28]: > 100 µM
TGI [29]: 90.5 µM
TGI [30]: 96.1 µM
TGI [31]: 43.6 µM
TGI [32]: 82.2 µM
TGI [33]: 80.4 µM
TGI [34]: 89 µM
TGI [35]: 19.6 µM
TGI [36]: > 100 µM
TGI [37]: 44.3 µM
TGI [38]: 30.1 µM
TGI [39]: > 100 µM
TGI [40]: > 100 µM
TGI [41]: 31 µM
TGI [42]: > 100 µM
TGI [43]: > 100 µM
TGI [44]: > 100 µM
TGI [45]: > 100 µM
TGI [46]: > 100 µM
TGI [47]: 57.4 µM
TGI [48]: > 100 µM
TGI [49]: > 100 µM
TGI [50]: 24.3 µM
TGI [51]: > 100 µM
TGI [52]: > 100 µM
TGI [53]: 93.7 µM
TGI [54]: > 100 µM
TGI [55]: > 100 µM
TGI [56]: > 100 µM

CC(NC(=O)c1ccc(NP(=O)(OCc2ccc([N+](=O)[O-])o2)N(C)CCCCCl)cc1)c1ccc(OCC2CCCCC2)c(C(N)=O)c1 (stereo unspecified)
TGI [1]: > 100 µM
TGI [2]: 33.2 µM
TGI [4]: > 100 µM
TGI [5]: 49.6 µM
TGI [7]: 31 µM
TGI [8]: 47.5 µM
TGI [9]: 45.9 µM
TGI [10]: 45.9 µM
TGI [11]: 35 µM
TGI [12]: 83.2 µM
TGI [57]: 26.4 µM
TGI [13]: 45.1 µM
TGI [15]: 44.4 µM
TGI [16]: 32 µM
TGI [17]: 49.3 µM
TGI [18]: 33.7 µM
TGI [19]: 22.8 µM
TGI [20]: 31.7 µM
TGI [21]: 20.6 µM
TGI [22]: 34.2 µM
TGI [23]: 25.5 µM
TGI [24]: 50 µM
TGI [25]: 16.5 µM
TGI [26]: 49.2 µM
TGI [27]: > 100 µM
TGI [28]: 73.7 µM
TGI [29]: 62.4 µM
TGI [30]: 72.3 µM
TGI [31]: > 100 µM
TGI [32]: 33.9 µM
TGI [33]: 31.6 µM
TGI [34]: 24.2 µM
TGI [35]: 31.6 µM
TGI [36]: 49.9 µM
TGI [37]: 21.1 µM
TGI [38]: 68.8 µM
TGI [39]: > 100 µM
TGI [40]: > 100 µM
TGI [41]: 27 µM
TGI [58]: 40.7 µM
TGI [42]: 33.6 µM
TGI [43]: 90.8 µM
TGI [44]: 43.4 µM
TGI [45]: 36.1 µM
TGI [46]: 34.8 µM
TGI [47]: 26.6 µM
TGI [48]: 80.7 µM
TGI [49]: > 100 µM
TGI [50]: 17 µM
TGI [51]: > 100 µM
TGI [52]: 36.4 µM
TGI [53]: 86.8 µM
TGI [54]: 42.9 µM
TGI [55]: 78.3 µM
TGI [56]: 18.3 µM
